These results are taken from PubChem BioAssay (NCI).

Some test systems named below: UACC-257 melanoma; HCT-116 colon; HOP-92 NSCLC; HOP-62 NSCLC; PC-3 prostate; HCC-2998 colon; 786-0 renal; SK-MEL-2 melanoma; A498 renal; HL-60(TB) leukemia.
Holding throughout (assay): growth of human tumour cells (NCI), 48 h

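Protocol summary: plate cells (96-well), add compound at 5 concentrations, incubate 48 h, interpolate endpoints linearly. TGI denotes the concentration required for complete inhibition of growth.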

On to `CCOC(=O)C1=C(C)N(C)C23OC4(C(=O)OC)CC2c2ccccc2C1N3C4=O` (stereo not given), for which the TGI with UACC-257 melanoma, with HCT-116 colon, in the assay with HOP-92 NSCLC, with HOP-62 NSCLC, with PC-3 prostate and in the assay with HCC-2998 colon was > 100 µM each time. The TGI in the assay with 786-0 renal, in the assay with SK-MEL-2 melanoma, in the assay with A498 renal and in the assay with HL-60(TB) leukemia was > 100 µM in each case.

Take `O=S(=O)(c1ccccc1)n1c2cc3cccnc3nc2c2cccnc21`: the TGI with UACC-257 melanoma, with HCT-116 colon, with HOP-92 NSCLC, in the assay on HOP-62 NSCLC, in the assay on PC-3 prostate and with HCC-2998 colon was > 100 µM each time. The TGI was > 100 µM with 786-0 renal, > 100 µM in the assay on SK-MEL-2 melanoma, > 100 µM with A498 renal and 48.1 µM in the assay on HL-60(TB) leukemia.
